Test results as given in PubChem BioAssay (NCI).
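Dose response: 5 concentrations. Exposure: 48 h. Format: 96-well plates. Endpoint: linear interpolation; highest concentration if not reached. TGI denotes the concentration required for complete inhibition of growth.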

Tests used:
Assay in all cases: NCI-60 cell line screen, 48 h
[1] = system: A549 NSCLC
[2] = system: ACHN renal
[3] = system: CCRF-CEM leukemia
[4] = system: COLO 205 colon
[5] = system: DLD-1 colon
[6] = system: HCC-2998 colon
[7] = system: HCT-116 colon
[8] = system: HL-60(TB) leukemia
[9] = system: HOP-62 NSCLC
[10] = system: HOP-92 NSCLC
[11] = system: HT29 colon
[12] = system: IGROV1 ovarian
[13] = system: K-562 leukemia
[14] = system: KM12 colon
[15] = system: LXFL 529 NSCLC
[16] = system: M19-MEL melanoma
[17] = system: MOLT-4 leukemia
[18] = system: NCI-H226 lung
[19] = system: NCI-H23 lung
[20] = system: NCI-H460 lung
[21] = system: NCI-H522 lung
[22] = system: OVCAR-3 ovarian
[23] = system: OVCAR-8 ovarian
[24] = system: RPMI-8226 leukemia
[25] = system: SF-268 CNS
[26] = system: SF-295 CNS
[27] = system: SF-539 CNS
[28] = system: SK-MEL-28 melanoma
[29] = system: SK-MEL-5 melanoma
[30] = system: SK-OV-3 ovarian
[31] = system: SNB-19 CNS
[32] = system: SR leukemia
[33] = system: SW-620 colon
[34] = system: TK-10 renal
[35] = system: U251 CNS
[36] = system: UACC-257 melanoma
[37] = system: UACC-62 melanoma
[38] = system: UO-31 renal
[39] = system: 786-0 renal
[40] = system: A498 renal
[41] = system: BT-549 breast
[42] = system: CAKI-1 renal
[43] = system: DU-145 prostate
[44] = system: EKVX NSCLC
[45] = system: HCT-15 colon
[46] = system: HS 578T breast
[47] = system: LOX IMVI melanoma
[48] = system: M14 melanoma
[49] = system: MALME-3M melanoma
[50] = system: MCF7 breast
[51] = system: MDA-MB-231 breast
[52] = system: MDA-MB-435
[53] = system: MDA-N
[54] = system: NCI/ADR-RES ovarian
[55] = system: OVCAR-4 ovarian
[56] = system: OVCAR-5 ovarian
[57] = system: PC-3 prostate
[58] = system: RXF 393 renal
[59] = system: SK-MEL-2 melanoma
[60] = system: SN12C renal
[61] = system: SNB-75 CNS
[62] = system: T-47D breast

`CCOC(=O)/C(C#N)=C1/Sc2c(ncn(/N=C/c3ccc(OC)cc3)c2=O)N1c1ccccc1` showed a TGI [1] of over 100 µM, a TGI [2] of over 100 µM and a TGI [3] of over 100 µM. For the same molecule, the TGI [4] was over 100 µM, the TGI [5] was over 100 µM and the TGI [6] was over 100 µM. It also gave a TGI [7] of over 100 µM, a TGI [8] of over 100 µM and a TGI [9] of 62.3 µM. For the same molecule, the TGI [10] was 59 µM, the TGI [11] was over 100 µM and the TGI [12] was over 100 µM. For the same molecule, the TGI [13] was over 100 µM, the TGI [14] was over 100 µM and the TGI [15] was over 100 µM. It also gave a TGI [16] of over 100 µM, a TGI [17] of over 100 µM and a TGI [18] of over 100 µM. It also gave a TGI [19] of over 100 µM, a TGI [20] of over 100 µM and a TGI [21] of over 100 µM. It also gave a TGI [22] of over 100 µM, a TGI [23] of over 100 µM and a TGI [24] of over 100 µM. It also gave a TGI [25] of 77.7 µM, a TGI [26] of 76.2 µM and a TGI [27] of 34.8 µM. The TGI [28] was 81.5 µM, the TGI [29] was over 100 µM and the TGI [30] was over 100 µM. For the same molecule, the TGI [31] was over 100 µM, the TGI [32] was over 100 µM and the TGI [33] was over 100 µM. For the same molecule, the TGI [34] was over 100 µM, the TGI [35] was over 100 µM and the TGI [36] was over 100 µM. For the same molecule, the TGI [37] was over 100 µM and the TGI [38] was over 100 µM.

Molecule `C[N+](C)(C)/N=C/c1ccc(O)c(O)c1` has a TGI [39] of over 100 µM, a TGI [40] of over 100 µM and a TGI [1] of over 100 µM. For the same molecule, the TGI [2] was over 100 µM, the TGI [41] was over 100 µM and the TGI [42] was over 100 µM. It also gave a TGI [3] of over 100 µM, a TGI [4] of over 100 µM and a TGI [43] of over 100 µM. It also gave a TGI [44] of over 100 µM, a TGI [6] of over 100 µM and a TGI [7] of over 100 µM. The TGI [45] was over 100 µM, the TGI [8] was over 100 µM and the TGI [9] was over 100 µM. It also gave a TGI [10] of over 100 µM, a TGI [46] of over 100 µM and a TGI [11] of over 100 µM. The TGI [12] was over 100 µM, the TGI [13] was over 100 µM and the TGI [14] was over 100 µM. It also gave a TGI [47] of over 100 µM, a TGI [48] of over 100 µM and a TGI [49] of over 100 µM. The TGI [50] was over 100 µM, the TGI [51] was over 100 µM and the TGI [52] was over 100 µM. The TGI [53] was over 100 µM, the TGI [17] was over 100 µM and the TGI [18] was over 100 µM. The TGI [19] was over 100 µM, the TGI [20] was over 100 µM and the TGI [21] was over 100 µM. The TGI [54] was over 100 µM, the TGI [22] was over 100 µM and the TGI [55] was over 100 µM. For the same molecule, the TGI [56] was over 100 µM, the TGI [23] was over 100 µM and the TGI [57] was over 100 µM. For the same molecule, the TGI [24] was over 100 µM, the TGI [58] was over 100 µM and the TGI [25] was over 100 µM. For the same molecule, the TGI [26] was over 100 µM, the TGI [27] was over 100 µM and the TGI [59] was over 100 µM. The TGI [28] was over 96.4 µM, the TGI [29] was over 100 µM and the TGI [30] was over 100 µM. It also gave a TGI [60] of over 100 µM, a TGI [31] of over 100 µM and a TGI [61] of over 100 µM. For the same molecule, the TGI [32] was over 100 µM, the TGI [33] was over 100 µM and the TGI [62] was over 100 µM. The TGI [34] was over 100 µM, the TGI [35] was over 100 µM and the TGI [36] was over 100 µM. It also gave a TGI [37] of over 100 µM and a TGI [38] of over 100 µM.
